How the values were obtained:
Full length Human HDAC6 = target: T1, Full length Human HDAC6 (Homo sapiens, UniProt Q9UBN7); assay: Caliper endpoint assay for HDAC enzymatic activity (HDAC6); format: biochemical; conditions: for IC50: in vitro enzymatic, Caliper endpoint assay, 30 min pre-incubation, 1 μM substrate peptide; for Selectivity (6 v 8): ratio of HDAC8 IC50/HDAC6 IC50
T1 construct: Full length Human HDAC6; FLAG (C); host or cells: baculovirus expression system
T1 sequence (Q9UBN7 1-1215): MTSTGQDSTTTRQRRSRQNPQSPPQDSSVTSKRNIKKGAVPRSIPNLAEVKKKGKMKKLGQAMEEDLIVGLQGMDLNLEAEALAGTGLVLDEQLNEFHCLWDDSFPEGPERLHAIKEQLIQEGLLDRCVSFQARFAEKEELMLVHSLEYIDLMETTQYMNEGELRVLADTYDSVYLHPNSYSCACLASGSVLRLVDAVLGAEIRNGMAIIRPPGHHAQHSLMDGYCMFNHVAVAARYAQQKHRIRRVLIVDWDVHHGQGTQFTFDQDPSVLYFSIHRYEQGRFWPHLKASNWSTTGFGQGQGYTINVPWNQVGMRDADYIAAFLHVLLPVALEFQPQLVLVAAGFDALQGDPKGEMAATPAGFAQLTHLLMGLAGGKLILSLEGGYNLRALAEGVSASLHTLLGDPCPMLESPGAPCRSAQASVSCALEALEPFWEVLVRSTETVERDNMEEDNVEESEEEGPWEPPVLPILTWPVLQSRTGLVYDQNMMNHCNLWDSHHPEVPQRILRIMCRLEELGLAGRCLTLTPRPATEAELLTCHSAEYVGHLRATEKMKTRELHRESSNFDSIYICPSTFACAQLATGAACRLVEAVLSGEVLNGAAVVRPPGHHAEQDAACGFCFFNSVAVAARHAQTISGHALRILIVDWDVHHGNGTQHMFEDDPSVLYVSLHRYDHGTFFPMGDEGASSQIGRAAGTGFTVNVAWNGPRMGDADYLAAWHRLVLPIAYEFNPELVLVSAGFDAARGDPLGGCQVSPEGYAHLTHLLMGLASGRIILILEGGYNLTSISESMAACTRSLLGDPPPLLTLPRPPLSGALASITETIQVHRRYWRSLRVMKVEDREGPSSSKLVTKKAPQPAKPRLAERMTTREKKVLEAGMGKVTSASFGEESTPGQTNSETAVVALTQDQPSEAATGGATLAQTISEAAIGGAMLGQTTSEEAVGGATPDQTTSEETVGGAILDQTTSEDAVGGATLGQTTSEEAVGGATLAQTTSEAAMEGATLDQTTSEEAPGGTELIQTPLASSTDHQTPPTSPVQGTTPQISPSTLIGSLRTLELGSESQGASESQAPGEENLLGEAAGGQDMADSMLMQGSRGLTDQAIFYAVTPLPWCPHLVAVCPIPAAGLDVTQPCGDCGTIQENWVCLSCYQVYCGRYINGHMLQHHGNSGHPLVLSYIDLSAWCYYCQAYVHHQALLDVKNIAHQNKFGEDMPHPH

Full length Human HDAC8 = target: T2, Full length Human HDAC8 (Homo sapiens, UniProt Q9BY41); assay: Caliper endpoint assay for HDAC enzymatic activity (HDAC8); format: biochemical; conditions: in vitro enzymatic, 30 min pre-incubation, 1 μM substrate peptide
T2 construct: Full length Human HDAC8; HIS (N); host or cells: baculovirus expression system
T2 sequence (Q9BY41 1-377): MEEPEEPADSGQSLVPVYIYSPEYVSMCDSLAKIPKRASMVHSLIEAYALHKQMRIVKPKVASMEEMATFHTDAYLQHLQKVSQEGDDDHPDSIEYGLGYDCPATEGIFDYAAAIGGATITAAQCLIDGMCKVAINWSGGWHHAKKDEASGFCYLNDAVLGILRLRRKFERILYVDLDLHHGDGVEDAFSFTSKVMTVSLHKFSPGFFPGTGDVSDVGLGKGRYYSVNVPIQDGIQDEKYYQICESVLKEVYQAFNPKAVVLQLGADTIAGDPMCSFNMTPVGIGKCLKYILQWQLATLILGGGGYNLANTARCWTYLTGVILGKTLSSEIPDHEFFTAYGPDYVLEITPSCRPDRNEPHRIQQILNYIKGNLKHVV

| SMILES | IC50 (Full length Human HDAC6) [nM] | Selectivity (6 v 8) (Full length Human HDAC6) | IC50 (Full length Human HDAC8) [nM] |
| --- | --- | --- | --- |
| O=C(NO)c1cc(F)c2c(c1)CCN(C1CCOC3(CCC3)C1)C2 (single isomer, unassigned) [Compound 446] | 1 to 100 | V (V: >1000) | 10000 to 100000 |
| O=C(NO)c1cc(F)c2c(c1)CCN(C1CC3(CCOC3)C1)C2 (single isomer, unassigned) [Compound 188, 8-fluoro-N-hydroxy-2-(6-oxaspiro[3.4]octan-2-yl)-1,2,3,4-tetrahydroisoquinoline-6-carboxamide] | 1 to 100 | IV (IV: >100-1000) | 10000 to 100000 |
| O=C(NO)c1ccc(CN2CCC3(CCCCC3)C2)c(F)c1 [Compound 75, 4-((2-Azaspiro[4.5]decan-2-yl)methyl)-3-fluoro-N-hydroxybenzamide] | – | III (III: >10-100) | – |
| O=C(NO)c1cc(F)c2c(c1)CCN([C@@H]1CCOC3(C1)CN(C1CC1)C3)C2 (single isomer, unassigned) [Compound 449] | 1000 to 10000 | III (III: >10-100) | 10000 to 100000 |
| O=C(NO)c1ccc2c(c1F)CCN(C1CC3(CCCCC3)C1)C2 [Compound 506, 5-fluoro-N-hydroxy-2-(spiro[3.5]nonan-2-yl)-1,2,3,4-tetrahydroisoquinoline-6-carboxamide] | > 100000 | V (V: >1000) | 10000 to 100000 |
| O=C(NO)c1cc(F)c2c(c1)CCN(CC1C3CNCC1C3)C2 (centres unmarked) [Compound 493] | 1 to 100 | IV (IV: >100-1000) | 10000 to 100000 |
| O=C(NO)c1cc(F)c2c(c1)CCN([C@H]1C[C@]3(CCCCO3)C1)C2 (single isomer, unassigned) [Compound 339, 8-fluoro-2-(5-oxaspiro[3.5]nonan-2-yl)-3,4-dihydro-1H-isoquinoline-6-carbohydroxamic acid] | 1 to 100 | IV (IV: >100-1000) | 10000 to 100000 |
| O=C(NO)c1cc(F)c2c(c1)CCN(C1CC3(CCCCN3C3CC3)C1)C2 (centres unmarked) [Compound 353, 2-(5-cyclopropyl-5-azaspiro[3.5]nonan-2-yl)-8-fluoro-3,4-dihydro-1H-isoquinoline-6-carbohydroxamic acid] | 1 to 100 | IV (IV: >100-1000) | 10000 to 100000 |
| CN1[C@@H]2CC[C@H]1CC(CN1CCc3cc(C(=O)NO)cc(F)c3C1)C2 (single isomer, unassigned) [Compound 482] | 1 to 100 | IV (IV: >100-1000) | 1000 to 10000 |
| CC[C@H]1Cc2c(F)cc(C(=O)NO)cc2CN1C1CCCCC1 (single isomer, unassigned) [Compound 583] | 100 to 1000 | III (III: >10-100) | 10000 to 100000 |
| O=C1CC2CCCC(C1)N2Cc1ccc(C(=O)NO)cc1F [Compound 62] | – | III (III: >10-100) | – |
| CC(=O)N1CC2(CCC(N3CCc4cc(C(=O)NO)cc(F)c4C3)C2)C1 (centres unmarked) [Compound 391, 2-(2-acetyl-2-azaspiro[3.4]octan-6-yl)-8-fluoro-N-hydroxy-1,2,3,4-tetrahydroisoquinoline-6-carboxamide] | 1 to 100 | IV (IV: >100-1000) | 10000 to 100000 |
| O=C(NO)c1cc(F)c2c(c1)CCN(CC1CC3(CCNCC3)C1)C2 [Compound 468, 2-(7-azaspiro[3.5]nonan-2-ylmethyl)-8-fluoro-3,4-dihydro-1H-isoquinoline-6-carbohydroxamic acid] | 1 to 100 | V (V: >1000) | 10000 to 100000 |
| CN1CC[C@]2(CC[C@H]2N2CCc3cc(C(=O)NO)cc(F)c3C2)C1 (single isomer, unassigned) [Compound 332] | 100 to 1000 | III (III: >10-100) | 1000 to 10000 |
| CN1CCC[C@]2(C1)C[C@H](N1CCc3cc(C(=O)NO)cc(F)c3C1)C2 (single isomer, unassigned) [Compound 344, 8-fluoro-N-hydroxy-2-((2s,4r)-6-methyl-6-azaspiro[3.5]nonan-2-yl)-1,2,3,4-tetrahydroisoquinoline-6-carboxamide] | 1 to 100 | IV (IV: >100-1000) | 10000 to 100000 |
| O=C(NO)c1cc(F)cc(CN2CCC3(CCCCC3)CC2)c1 [Compound 276, 3-((3-azaspiro[5.5]undecan-3-yl)methyl)-5-fluoro-N-hydroxybenzamide] | 10000 to 100000 | I (I: 0.1-1) | 1000 to 10000 |

| SMILES | IC50 (Full length Human HDAC6) [nM] | Selectivity (6 v 8) (Full length Human HDAC6) | IC50 (Full length Human HDAC8) [nM] |
| --- | --- | --- | --- |
| CN1CCC[C@@]2(CC[C@@H]2N2CCc3cc(C(=O)NO)cc(F)c3C2)C1 (single isomer, unassigned) [Compound 364] | 1 to 100 | IV (IV: >100-1000) | 10000 to 100000 |
| CN1CC2(CC(N3CCc4cc(C(=O)NO)cc(F)c4C3)C2)C1 [Compound 290, 8-fluoro-N-hydroxy-2-(2-methyl-2-azaspiro[3.3]heptan-6-yl)-1,2,3,4-tetrahydroisoquinoline-6-carboxamide] | 1 to 100 | IV (IV: >100-1000) | 1000 to 10000 |
| CC[C@@H]1Cc2c(F)cc(C(=O)NO)cc2CN1CC12CC3CC(CC(C3)O1)C2 (single isomer, unassigned) [Compound 509] | 1 to 100 | III (III: >10-100) | 1000 to 10000 |
| O=C(NO)c1cc(F)c2c(c1)CCN(C[C@@H]1CCCCO1)C2 (single isomer, unassigned) [Compound 174] | 1 to 100 | IV (IV: >100-1000) | 10000 to 100000 |
| O=C(NO)c1cc(F)c2c(c1)CCN([C@H]1CCC3(CCCC3)C1)C2 (single isomer, unassigned) [Compound 185] | 1 to 100 | IV (IV: >100-1000) | 10000 to 100000 |
| CNC12CC(CN3CCc4cc(C(=O)NO)cc(F)c4C3)(C1)C2 [Compound 487, 8-fluoro-2-[[3-(methylamino)-1-bicyclo[1.1.1]pentanyl]methyl]-3,4-dihydro-1H-isoquinoline-6-carbohydroxamic acid] | 1 to 100 | IV (IV: >100-1000) | 1000 to 10000 |
| O=C(NO)c1cc(F)c2c(c1)CCN([C@H]1C[C@@]3(CCCNC3)C1)C2 (single isomer, unassigned) [Compound 342, 8-fluoro-N-hydroxy-2-((2s,4r)-6-azaspiro[3.5]nonan-2-yl)-1,2,3,4-tetrahydroisoquinoline-6-carboxamide] | 1 to 100 | IV (IV: >100-1000) | 1000 to 10000 |
| CC1(C)C[C@H]2Cc3cc(C(=O)NO)cc(F)c3CN2C1 (single isomer, unassigned) [Compound 125] | – | III (III: >10-100) | – |
| O=C(NO)c1ccc(CN2C3CCCC2COC3)c(F)c1 [Compound 52] | – | III (III: >10-100) | – |
| O=C(NO)c1ccc(CN2C3CCCC2CCC3)c(F)c1 [Compound 60] | – | II (II: >1-10) | – |
| O=C(NO)c1ccc(CN2C3CCC2COC3)c(F)c1 [Compound 59] | – | III (III: >10-100) | – |
| O=C(NO)c1ccc2c(c1)CN1CCC[C@@H]21 (single isomer, unassigned) [Compound 165] | – | III (III: >10-100) | – |
| O=C(NO)c1ccc(CN2C3CCCC2CC3)c(F)c1 [Compound 61] | – | II (II: >1-10) | – |
| O=C1CC2CCC(C1)N2Cc1ccc(C(=O)NO)cc1F [Compound 63] | – | III (III: >10-100) | – |
| CN1CC2CCC(C1)N2Cc1ccc(C(=O)NO)cc1F [Compound 56] | – | III (III: >10-100) | – |
| O=C(NO)c1cc(F)c(CN2C3CCC2COC3)cc1F [Compound 50] | – | III (III: >10-100) | – |

From patent publication US12655106B2 (Eikonizo Therapeutics, Inc., priority 2021, dated 2026)
